Measured values from patent US8663616B2, “Enzymatic peracid generation for use in oral care products” (E I du Pont de Nemours and Company, priority 2010, dated 2014).
Ends that are not written are not given here. * marks the point of attachment. Biotin = O=C1N[C@H]2[C@H](CS[C@H]2CCCCC(=O)*)N1

Tests used:
C277S (SEQ ID NO: 424) = molecular target: T1, C277S (SEQ ID NO: 424) (Thermotoga maritima, UniProt Q9WXT2, C277S); type: biochemical; conditions: 100 mM ester, 60 mM H2O2, 40 ppm enzyme, 95 mM phosphate pH 7.2, 37° C.
T1 construct: made in house; host or cells: E. coli
Procedure: (§1) To test various enzymes against an ester substrate, it was convenient to run up to 4 reactions simultaneously by staggering the beginning of each individual reaction by 0.5-1 min. Each individual reaction was performed in a glass vessel (height: 76 mm; o.d.: 33 mm; i.d.: 24 mm) equipped with a magnetic stirring bar. Four reaction vessels were banded together and kept at constant temperature in a jacketed one-liter, stainless steel, tempering beaker (KGW IsoTherm, # TSS-G 1000W) with circulating water controlled by a Thermo NesLab recirculation bath (Model # RTE-7 Digital One). Buffer (6 mL, 100 mM sodium phosphate buffer, pH 7.2) was added to each reaction vessel and allowed to equilibrate to 37° C. The ester substrate of interest was added to achieve 100 mM concentration. […] To follow the production of peracetic acid, 80 μL samples from each reaction were removed at specific intervals from 1 to 15 minutes. The sample was immediately quenched in a microfuge filter tube (NanoSep 30K VWR cat #82031-354) containing a volume and concentration of phosphoric acid solution that was sufficient to stop the enzymatic reaction (by lowering the pH between 2 and 3) and to dilute the sample for convenient HPLC analyses. The acid-quenched samples were centrifuged for 5 minutes to remove any particulates.

C277T (SEQ ID NO: 437) = molecular target: T2, C277T (SEQ ID NO: 437) (Thermotoga maritima, UniProt Q9WXT2, C277T); type: biochemical; conditions: 100 mM ester, 60 mM H2O2, 40 ppm enzyme, 95 mM phosphate pH 7.2, 37° C.
T2 construct: made in house; host or cells: E. coli
Procedure: as §1

[1] = molecular target: T3, C277T/R296P (SEQ ID NO: 476) (Thermotoga maritima, UniProt Q9WXT2, C277T/R296P); type: biochemical; conditions: 100 mM ester, 60 mM H2O2, 40 ppm enzyme, 95 mM phosphate pH 7.2, 37° C.
T3 construct: made in house; host or cells: E. coli
Procedure: as §1

[2] = molecular target: T4, Wild Type (SEQ ID NO: 16) (Thermotoga maritima, UniProt Q9WXT2); assay: Maximum peracetic acid from ester substrates with wild type perhydrolase (Example 14); type: biochemical; conditions: 100 mM ester, 60 mM H2O2, 40 ppm enzyme, 95 mM phosphate pH 7.2, 37° C.
T4 construct: made in house; host or cells: E. coli
T4 sequence (Q9WXT2 1-325): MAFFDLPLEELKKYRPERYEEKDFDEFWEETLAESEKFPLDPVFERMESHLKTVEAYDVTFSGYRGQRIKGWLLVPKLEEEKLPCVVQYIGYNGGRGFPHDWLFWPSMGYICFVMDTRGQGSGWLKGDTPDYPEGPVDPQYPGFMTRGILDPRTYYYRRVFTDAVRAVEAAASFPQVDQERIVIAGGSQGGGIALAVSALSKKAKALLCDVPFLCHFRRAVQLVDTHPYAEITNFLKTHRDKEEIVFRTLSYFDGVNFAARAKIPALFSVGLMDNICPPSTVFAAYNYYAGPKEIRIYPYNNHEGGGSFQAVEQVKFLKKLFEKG
Procedure: as §1

[3] = Bleaching of coffee-tea stained bovine enamel with EZ-1 and various ester substrates (Example 15); design: Whiteness Index Treatment 0 / Whiteness Index Treatment 1 / Whiteness Index Treatment 2 / Whiteness Index Treatment 3 / ΔWI: scale not given here; conditions: for Whiteness Index Treatment 1: after 1 x 30 min treatment; for Whiteness Index Treatment 2: after 2 x 30 min treatments; for Whiteness Index Treatment 3: after 3 x 30 min treatments; for Whiteness Index Treatment 0: before treatment, 40 ppm EZ-1, 100 mM substrate, H2O2 100 mM (TA), 360 mM (PGDA, SOC), 60 mM (GPA), pH 7.2, control 9% H2O2 pH 5.3 without enzyme; for change in whiteness index (in words): enzymatically generated peracetic acid with EZ-1, each successive treatment; for ΔWI: treatment 0 to treatment 3
Procedure: The optimal conditions used for the generation of peracetic acid with each substrate were derived from the studies in Example 14 and are listed below as follows:
Bovine enamel incisors were prepared as indicated in Example 1. The stained enamel blocks were placed in a 24 well plate with the dentin side facing down and hydrated overnight in phosphate buffer, pH 7.2. Prior to treatment, a color measurement of each tooth was performed using a Konica-Minolta 2600d spectrophotometer and whiteness index was calculated as specified in Example 1.
Each enzyme solution was prepared in a 1.5-mL microfuge tube (Eppendorf, #2243102-1) and 1 mL of the solution was immediately transferred to the 24 well plate containing the pre-hydrated teeth. The control samples consisted of 100 mM phosphate buffer, pH 7.2 and 9% H2O2 in 100 mM citrate/phosphate buffer, pH 5.3. The teeth were incubated at room temperature for 30 minutes, removed, rinsed with 100 mM phosphate, pH 7.2 and a color measurement was taken. The teeth were placed back into the 24 well plate at which time fresh enzyme solutions were prepared and added to each well. This process was repeated for a total of 3 whitening treatments; 30 min per treatment (Table 22).

[4] = 20 μM biotin-labelled peptide, 30 min 37° C.; streptavidin-HRP, QuantaBlu; three replicate enamel substrates; no peptide 494.2
Procedure: A total of 11 synthetic peptides were manufactured using sequences obtained from Table 3. Peptides were obtained from SynBioSci Corp. (Livermore, Calif.) with biotin labeled lysine at the C-terminus.
Enamel substrates were prepared as described in Example 2. Each substrate was incubated for 1 h at room temperature (˜22° C.) with 1 mL of blocking buffer, consisting of 1 mg/mL BSA in PBST (Pierce BUPH™ #28372 with 0.1% TWEEN® 20). The blocking buffer was removed by aspirating the liquid out of each well. The tube was rinsed 2 times with wash buffer consisting of PBST. The wells were filled with 500 μL of 20 μM peptide solution which was prepared by diluting in blocking buffer. The samples were incubated for 30 min with slow shaking at 37° C. The non-binding peptide was removed by washing 6 times with PBST. Then, 500 μL of horseradish peroxidase/streptavidin conjugate (Pierce #22127), diluted 1:1000 in PBST, was added and incubated for 1 h at room temperature (˜22° C.). The conjugate solution was removed and the enamel blocks were washed 4 times with PEST.
Each enamel substrate was removed from the well and washed again in a 15-mL test tube with 10 mL of PBST. Each enamel substrate was then mounted in a clean well plate with only the enamel surface exposed. 200 μL of a QUANTABLU™ Substrate Solution (Thermo-Fisher, Rockford, Ill.; #1856187) was added directly to each enamel block. The solution was incubated for 20 min at room temperature. 200 μL of QUANTABLU™ Stop Solution (Thermo Fisher) was added. After mixing, 200 μL of solution was transferred to a clean 96-well black microcentrifuge plate. The fluorescence of the plate was measured with 325 nm excitation and 420 nm emission with no cutoff wavelength using a microplate spectrophotometer (Molecular Devices, Sunnyvale, Calif.). The analysis of the 11 pellicle/enamel binding candidates was compared to a known binding peptide, DenP03. Each sequence was tested with three replicate enamel substrates.

T3 sequence (Q9WXT2 whole entry C277T/R296P): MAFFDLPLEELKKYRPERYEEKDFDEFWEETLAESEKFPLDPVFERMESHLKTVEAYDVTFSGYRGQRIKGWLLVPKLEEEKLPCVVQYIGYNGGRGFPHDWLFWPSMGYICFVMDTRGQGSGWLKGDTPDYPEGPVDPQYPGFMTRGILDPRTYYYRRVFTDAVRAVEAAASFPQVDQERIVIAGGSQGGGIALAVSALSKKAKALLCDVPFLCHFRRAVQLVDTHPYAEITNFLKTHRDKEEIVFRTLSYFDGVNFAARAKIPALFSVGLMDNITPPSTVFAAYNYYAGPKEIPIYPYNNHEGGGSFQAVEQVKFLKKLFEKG
T2 sequence (Q9WXT2 whole entry C277T): as the sequence (Q9WXT2 whole entry C277T/R296P) above, with P296R counted along it
T1 sequence (Q9WXT2 whole entry C277S): as the sequence (Q9WXT2 whole entry C277T/R296P) above, with T277S, P296R counted along it

In the case of `CC(=O)OCC(C)OC(C)=O` (stereo not drawn) [Propylene glycol diacetate], the “Maximum Peracetic Acid (PAA) (ppm), C277S (SEQ ID NO: 424)” value (C277S (SEQ ID NO: 424)) is reported as 1128 ppm, the “Maximum Peracetic Acid (PAA) (ppm), C277T (SEQ ID NO: 437)” value (C277T (SEQ ID NO: 437)) is reported as 1245 ppm and the “Maximum Peracetic Acid (PAA) (ppm), C277T/R296P (SEQ ID NO: 476)” value (shortened to “Maximum Peracetic Acid … (SEQ ID NO: 476)”) [1] is reported as 1202 ppm. For the same compound, the “Maximum Peracetic Acid (PAA) (ppm), Wild Type (SEQ ID NO: 16)” value (“Maximum Peracetic Acid … (SEQ ID NO: 16)” for short) [2] was 780 ppm, the “Whiteness Index Treatment 1” value [3] was −108.0 and the “Whiteness Index Treatment 2” value [3] was −80.9. The “Whiteness Index Treatment 3” value [3] was −80.1, the “Whiteness Index Treatment 0” value [3] was −181.4 and the “change in whiteness index (in words)” value [3] was “significant change in whiteness index”. For the same compound, the ΔWI [3] was 101.3.
For GMGSEVLSQYPQAPVGK(Biotin) [DenP312], the “Avg Fluorescence 325/420” value [4] was 2301.0.
In the case of GSNNHLPSTVPRLTVK(Biotin) [DenP306], the “Avg Fluorescence 325/420” value [4] is reported as 1300.0.
With SNATMYNIQSHSHHQK (Biotin) [DenP301] the “Avg Fluorescence 325/420” value [4] was 1098.4.
With SNPIPNFAHDLRHSKYNSK (Biotin) [DenP307] the “Avg Fluorescence 325/420” value [4] was 861.6.
In the case of “ANSGFPIWLQKYPWSEVQQEK (Biotin) [DenP309]”, the “Avg Fluorescence 325/420” value [4] is reported as 1729.5.
With DLGTFPNRTLKMAAHK(Biotin) [DenP304] the “Avg Fluorescence 325/420” value [4] was 642.8.
For HDPYTMKSALRQSTSK(Biotin) [DenP303], the “Avg Fluorescence 325/420” value [4] was 948.6.
With DTIHPNKMKSPSSPLK (Biotin) [DenP305] the “Avg Fluorescence 325/420” value [4] was 581.2.
With `CC(=O)OC[C@H]1O[C@@](COC(C)=O)(O[C@H]2O[C@H](COC(C)=O)[C@@H](OC(C)=O)[C@H](OC(C)=O)[C@H]2OC(C)=O)[C@@H](OC(C)=O)[C@@H]1OC(C)=O` [Sucrose octaacetate] the “Maximum Peracetic Acid (PAA) (ppm), C277S (SEQ ID NO: 424)” value (C277S (SEQ ID NO: 424)) was 215 ppm, the “Maximum Peracetic Acid (PAA) (ppm), C277T (SEQ ID NO: 437)” value (C277T (SEQ ID NO: 437)) was 493 ppm and the “Maximum Peracetic Acid … (SEQ ID NO: 476)” value [1] was 501 ppm. The “Maximum Peracetic Acid … (SEQ ID NO: 16)” value [2] was 304 ppm, the “Whiteness Index Treatment 1” value [3] was −135.2 and the “Whiteness Index Treatment 2” value [3] was −135.9. For the same compound, the “Whiteness Index Treatment 3” value [3] was −128.8, the “Whiteness Index Treatment 0” value [3] was −172.8 and the “change in whiteness index (in words)” value [3] was “significant change in whiteness index”. The ΔWI [3] was 44.0.
For “TTYHYKNIYQESYQQRNPAVK (Biotin) [DenP03, reference compound]”, the “Avg Fluorescence 325/420” value [4] was 3448.3.
With TKPPRTPTANTSRPHHNFK(Biotin) [DenP308] the “Avg Fluorescence 325/420” value [4] was 12302.6.
For QAAQVHMMQHSRPTTK (Biotin) [DenP302], the “Avg Fluorescence 325/420” value [4] was 608.6.
For ATPSQHRYGLMQNHAPNGIEK(Biotin) [DenP311], the “Avg Fluorescence 325/420” value [4] was 795.3.
For `CC(=O)OCC(COC(C)=O)OC(C)=O` [Triacetin], the “Maximum Peracetic Acid (PAA) (ppm), C277S (SEQ ID NO: 424)” value (C277S (SEQ ID NO: 424)) was 1977 ppm, the “Maximum Peracetic Acid (PAA) (ppm), C277T (SEQ ID NO: 437)” value (C277T (SEQ ID NO: 437)) was 2311 ppm and the “Maximum Peracetic Acid … (SEQ ID NO: 476)” value [1] was 2291 ppm. For the same compound, the “Maximum Peracetic Acid … (SEQ ID NO: 16)” value [2] was 937 ppm, the “Whiteness Index Treatment 1” value [3] was −108.7 and the “Whiteness Index Treatment 2” value [3] was −86.7. The “Whiteness Index Treatment 3” value [3] was −86.1, the “Whiteness Index Treatment 0” value [3] was −189.9 and the “change in whiteness index (in words)” value [3] was “significant change in whiteness index”. It also gave a ΔWI [3] of 103.8.
In the case of `CC(=O)OC[C@H]1OC(OC(C)=O)[C@H](OC(C)=O)[C@@H]1OC(C)=O` (stereo partly drawn) [1,2,3,5-tetra-O-acetyl-ribofuranose], the “Maximum Peracetic Acid (PAA) (ppm), C277S (SEQ ID NO: 424)” value (C277S (SEQ ID NO: 424)) is reported as 3397 ppm, the “Maximum Peracetic Acid (PAA) (ppm), C277T (SEQ ID NO: 437)” value (C277T (SEQ ID NO: 437)) is reported as 3472 ppm and the “Maximum Peracetic Acid … (SEQ ID NO: 476)” value [1] is reported as 3270 ppm. The “Maximum Peracetic Acid … (SEQ ID NO: 16)” value [2] was 2828 ppm.
In the case of `CC(=O)OC[C@H]1O[C@H](OC(C)=O)[C@H](OC(C)=O)[C@@H](OC(C)=O)[C@@H]1OC(C)=O` [α-D-glucose pentaacetate], the “Maximum Peracetic Acid (PAA) (ppm), C277S (SEQ ID NO: 424)” value (C277S (SEQ ID NO: 424)) is reported as 2091 ppm, the “Maximum Peracetic Acid (PAA) (ppm), C277T (SEQ ID NO: 437)” value (C277T (SEQ ID NO: 437)) is reported as 2542 ppm and the “Maximum Peracetic Acid … (SEQ ID NO: 476)” value [1] is reported as 1678 ppm. The “Maximum Peracetic Acid … (SEQ ID NO: 16)” value [2] was 1188 ppm, the “Whiteness Index Treatment 1” value [3] was −128.7 and the “Whiteness Index Treatment 2” value [3] was −105.3. The “Whiteness Index Treatment 3” value [3] was −95.9, the “Whiteness Index Treatment 0” value [3] was −225.2 and the “change in whiteness index (in words)” value [3] was “significant change in whiteness index”. The ΔWI [3] was 129.3.
In the case of `CC(=O)OC[C@H]1OC=C[C@@H](OC(C)=O)[C@@H]1OC(C)=O` [Tri-O-acetyl glucal], the “Maximum Peracetic Acid (PAA) (ppm), C277S (SEQ ID NO: 424)” value (C277S (SEQ ID NO: 424)) is reported as 1047 ppm, the “Maximum Peracetic Acid (PAA) (ppm), C277T (SEQ ID NO: 437)” value (C277T (SEQ ID NO: 437)) is reported as 1319 ppm and the “Maximum Peracetic Acid … (SEQ ID NO: 476)” value [1] is reported as 1034 ppm. The “Maximum Peracetic Acid … (SEQ ID NO: 16)” value [2] was 729 ppm.
